Here are results for 31 sequences from patent US20240384268A1, “Oligonucleotides” (Hudson Institute of Medical Research, priority 2021, published 2024).

In the oligonucleotide strings, read from the 5' end, every base follows the letter of its sugar. An asterisk marks phosphorothioate; unmarked linkages are phosphodiester. Other units and linkages are bracketed, terminal groups are in braces. A string of capitals states the bases alone. m = 2'-O-methyl

This data set concerns the target T1, TLR8 (Homo sapiens, UniProt Q9NR97).
T1 sequence (Q9NR97 27-1041): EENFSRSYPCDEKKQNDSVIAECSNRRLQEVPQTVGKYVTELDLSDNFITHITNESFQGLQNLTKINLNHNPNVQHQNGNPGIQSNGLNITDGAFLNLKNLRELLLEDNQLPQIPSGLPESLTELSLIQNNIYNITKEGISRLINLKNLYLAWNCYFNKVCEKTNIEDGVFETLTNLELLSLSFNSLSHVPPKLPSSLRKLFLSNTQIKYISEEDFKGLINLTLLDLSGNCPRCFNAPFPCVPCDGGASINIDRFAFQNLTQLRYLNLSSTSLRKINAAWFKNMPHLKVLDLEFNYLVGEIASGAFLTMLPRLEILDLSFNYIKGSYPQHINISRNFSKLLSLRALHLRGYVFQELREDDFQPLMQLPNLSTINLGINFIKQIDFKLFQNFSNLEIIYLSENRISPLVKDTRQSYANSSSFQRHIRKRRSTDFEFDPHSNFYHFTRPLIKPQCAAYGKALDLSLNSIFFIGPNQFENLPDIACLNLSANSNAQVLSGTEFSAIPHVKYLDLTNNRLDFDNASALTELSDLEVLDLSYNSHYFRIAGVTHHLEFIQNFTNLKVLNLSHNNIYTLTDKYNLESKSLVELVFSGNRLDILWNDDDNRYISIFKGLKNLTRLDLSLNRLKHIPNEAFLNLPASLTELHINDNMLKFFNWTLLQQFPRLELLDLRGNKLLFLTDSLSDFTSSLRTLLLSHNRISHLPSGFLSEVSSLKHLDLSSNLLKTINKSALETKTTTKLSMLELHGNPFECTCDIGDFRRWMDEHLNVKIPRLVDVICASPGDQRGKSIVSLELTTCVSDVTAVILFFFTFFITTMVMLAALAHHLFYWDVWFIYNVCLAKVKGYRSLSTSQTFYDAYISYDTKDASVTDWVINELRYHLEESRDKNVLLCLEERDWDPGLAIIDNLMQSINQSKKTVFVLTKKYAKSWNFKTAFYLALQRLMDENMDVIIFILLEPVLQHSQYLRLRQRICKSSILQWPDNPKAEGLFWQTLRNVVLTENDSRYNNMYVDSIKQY
Put plainly: HEK-TLR8 NF-κB-luciferase reporter, R848 or Motolimod stimulation (potentiation or inhibition). Format: cell-based. On the set-up: expressed in transfected cells; host or cells: 293XLhTLR8 (HEK293). Particulars: for TLR8 HEK 5 uM: 3mer 2'OMe ASO at 5 uM, value relative to Ligand only = 1.000, NT = 0.000; for TLR8 100 nM (averaged NF-κB-Luciferase level relative to R848 condition, fold increase): ASO 100 nM; for TLR8 100 nM (averaged NF-κB-Luciferase level relative to R848 condition, fold increase) / TLR8 500 nM (averaged NF-κB-Luciferase level relative to R848 condition, fold increase): relative to R848 only; for TLR8 500 nM (averaged NF-κB-Luciferase level relative to R848 condition, fold increase): ASO 500 nM. As for the experimental part:
(§1) In such examples, potentiation of TLR8 activity can be identified by observation of an overall increased TLR8 response of the cell population, or a higher proportion of cells having TLR8-positive activity as compared to a negative control condition in which cells are treated with TLR8 agonist in the absence of the oligonucleotide (or in the presence of an appropriate control non-potentiating agent). In one example, 293XLhTLR8 (referred to as HEK-TLR8) cells are transfected with pNF-κB-Luc4 reporter, incubated with an oligonucleotide, and then stimulated with R848. TLR8 activity can be determined by a luciferase assay, which measures activated NF-κB by luminescence. TLR8 activity can also be analysed by measuring cytokine levels, for example by ELISA.
as §1, with “inhibition” for “potentiation”, “decreased” for “increased”, “lower” for “higher”, “positive” for “negative”, “inhibitory” for “non-potentiating”
For cGAS stimulations, cells were treated for indicated duration with ASOs, prior to transfection with ISD70 (human cells) or ISD45 (mouse cells) (the ASOs were not washed off prior to ISD transfection unless otherwise indicated). The cGAS ligands ISD45 (Stetson and Medzhitov, 2006) and ISD70 (also known as VACV-70 (Unterholzner et al., 2010)) (Table 1) were resuspended as follows: 5 1d of sense and 5 μl of antisense strands at 10 μg/μl were added to 90 μl PBS under sterile conditions, heated at 75° C. for 30 min, prior to letting cool down at room temperature and aliquoting (stock at 1 μg/1 l). The ISDs were transfected at a concentration of […] at a ratio of 1 μg:1 μl with Lipofectamine 2000 in Opti-MEM (Thermo Fisher Scientific). HEK-TLR3, HEK-TLR7 and […] were treated with indicated concentration of ASOs for 20-50 min, prior to stimulation with poly(I:C) (Invivogen), R848 (Invivogen), Motolimod (MedChemExpress) and the Class B CpG oligonucleotides ODN 2006 (synthesised by IDT and resuspended in RNase-free TE buffer [Table 1]), respectively. The TLR2/1 agonist PAM3CSK4 (Invivogen), the TLR4 agonist lipopolysaccharide (Invivogen), the Class B CpG oligonucleotides ODN 1826 (synthesised by IDT and resuspended in RNase-free TE buffer), the mouse Sting agonist DMXAA (Cayman) and the human STING agonist (compound #3 from (Raanjulu et al., 2018), referred to as GSK herein—kind gift from Cancer Therapeutics CRC, Australia) were used at indicated concentrations. Aspirin (Sigma—A2093) was resuspended in pure medium to 10 mM, filter sterilised and added to the cells at 2 mM final. All ASOs were synthesised by Integrated DNA Technologies (IDT), and resuspended in RNase-free TE buffer, pH 8.0 (Thermo Fisher Scientific). Cell viability was assessed by adding 1× fresh resazurin solution to the wells (10λ solution made up with 7 mg resazurin [Sigma—R7017] dissolved in 3.5 ml PBS, sterile filtered at […]) for 4 h, prior to reading at with a Fluostar OPTIMA (BMG LABTECH) plate-reader (fluorescence: Excitation 535 nm, Emission 590); wells with medium only and 1× resazurin were used as blanks.

AAU (antisense mA*mA*mU): the “TLR8 HEK 5 uM” value amounted to 0.807.

Take “ACACTTCGTGGGGTCC (antisense; LNA-modified, pattern not given here) [HPRT LNA-665 V1]”: the “TLR8 100 nM (averaged NF-κB-Luciferase level relative to R848 condition, fold increase)” value is on record as 0.422 and the “TLR8 500 nM (averaged NF-κB-Luciferase level relative to R848 condition, fold increase)” value worked out at 1.029.

With ACU (antisense mA*mC*mU), the “TLR8 HEK 5 uM” value is on record as 0.896.

Consider AGU (antisense mA*mG*mU), for which the “TLR8 HEK 5 uM” value was determined as 1.329.

For the sequence AUA (antisense mA*mU*mA), the “TLR8 HEK 5 uM” value is reported as 0.812.

AUG (mA*mU*mG): the “TLR8 HEK 5 uM” value was determined as 0.828.

For the sequence AUU (mA*mU*mU), the “TLR8 HEK 5 uM” value worked out at 0.762.

For the sequence “CAACACTTCGTGGGGT (antisense; LNA-modified, pattern not given here) [HPRT LNA-667 V1]”, the “TLR8 100 nM (averaged NF-κB-Luciferase level relative to R848 condition, fold increase)” value stood at 0.591 and the “TLR8 500 nM (averaged NF-κB-Luciferase level relative to R848 condition, fold increase)” value came out at 0.690.

Consider CAU (mC*mA*mU), for which the “TLR8 HEK 5 uM” value worked out at 0.752.

As to “CCAAGATCAGCAGTCT (antisense; LNA-modified, pattern not given here) [CTNN2B-2341 LNA KL]”, the “TLR8 100 nM (averaged NF-κB-Luciferase level relative to R848 condition, fold increase)” value was 1.015 and the “TLR8 500 nM (averaged NF-κB-Luciferase level relative to R848 condition, fold increase)” value was 2.920.

For “CCATCCATGAGGTCCT (antisense; LNA-modified, pattern not given here) [CTNN2B-2545 LNA V1]”, the “TLR8 100 nM (averaged NF-κB-Luciferase level relative to R848 condition, fold increase)” value is 0.675 and the “TLR8 500 nM (averaged NF-κB-Luciferase level relative to R848 condition, fold increase)” value is listed as 1.169.

Regarding CCU (mC*mC*mU), the “TLR8 HEK 5 uM” value is on record as 0.613.

On to CGU (mC*mG*mU), for which the “TLR8 HEK 5 uM” value stood at 1.327.

CUA (mC*mU*mA): the “TLR8 HEK 5 uM” value was determined as 0.642.

CUC (mC*mU*mC): the “TLR8 HEK 5 uM” value stood at 0.685.

With CUG (mC*mU*mG), the “TLR8 HEK 5 uM” value stood at 1.074.

On to “GATAGCACCTTCAGCA (antisense; LNA-modified, pattern not given here) [CTNN2B-1294 LNA KL]”, for which the “TLR8 100 nM (averaged NF-κB-Luciferase level relative to R848 condition, fold increase)” value is recorded as 0.821 and the “TLR8 500 nM (averaged NF-κB-Luciferase level relative to R848 condition, fold increase)” value was 2.863.

For “GCAGGCTCAGTGATGT (antisense; LNA-modified, pattern not given here) [CTNN2B-1642 LNA V1]”, the “TLR8 100 nM (averaged NF-κB-Luciferase level relative to R848 condition, fold increase)” value is reported as 0.638 and the “TLR8 500 nM (averaged NF-κB-Luciferase level relative to R848 condition, fold increase)” value is 1.440.

Consider “GCATCCACCACGTCGT (antisense; LNA-modified, pattern not given here) [EGFR-3267 LNA V1]”, for which the “TLR8 100 nM (averaged NF-κB-Luciferase level relative to R848 condition, fold increase)” value amounted to 0.607 and the “TLR8 500 nM (averaged NF-κB-Luciferase level relative to R848 condition, fold increase)” value amounted to 0.738.

As to “GCCATCCACTTGATAG (antisense; LNA-modified, pattern not given here) [EGFR-2874 LNA V1]”, the “TLR8 100 nM (averaged NF-κB-Luciferase level relative to R848 condition, fold increase)” value was determined as 0.440 and the “TLR8 500 nM (averaged NF-κB-Luciferase level relative to R848 condition, fold increase)” value is given as 0.681.

Consider “GCCATGCTGGCTCGGA (antisense; LNA-modified, pattern not given here) [CAMSAP1-2584 LNA V1]”, for which the “TLR8 100 nM (averaged NF-κB-Luciferase level relative to R848 condition, fold increase)” value came to 0.446 and the “TLR8 500 nM (averaged NF-κB-Luciferase level relative to R848 condition, fold increase)” value is listed as 0.363.

For the sequence “GCCATGTTTCTTCTTG (antisense; LNA-modified, pattern not given here) [MB21D1-1248 LNA KL]”, the “TLR8 100 nM (averaged NF-κB-Luciferase level relative to R848 condition, fold increase)” value is 0.430 and the “TLR8 500 nM (averaged NF-κB-Luciferase level relative to R848 condition, fold increase)” value was found to be 0.431.

For GCU (mG*mC*mU), the “TLR8 HEK 5 uM” value was determined as 0.810.

For the sequence “GGCTGGAATCCGAGTT (antisense; LNA-modified, pattern not given here) [EGFR-4705 LNA KL]”, the “TLR8 100 nM (averaged NF-κB-Luciferase level relative to R848 condition, fold increase)” value stood at 0.562 and the “TLR8 500 nM (averaged NF-κB-Luciferase level relative to R848 condition, fold increase)” value is recorded as 0.577.

For the sequence “GGTTACGGCTCAGTAT (antisense; LNA-modified, pattern not given here) [CAMSAP1-4295 LNA KL]”, the “TLR8 100 nM (averaged NF-κB-Luciferase level relative to R848 condition, fold increase)” value is 0.804 and the “TLR8 500 nM (averaged NF-κB-Luciferase level relative to R848 condition, fold increase)” value was 1.848.

As to GGU (mG*mG*mU), the “TLR8 HEK 5 uM” value was 1.380.

Turning to “GTATCGAAAGAGTCTG (antisense; LNA-modified, pattern not given here) [EGFR-3908 LNA KL]”, the “TLR8 100 nM (averaged NF-κB-Luciferase level relative to R848 condition, fold increase)” value is 0.637 and the “TLR8 500 nM (averaged NF-κB-Luciferase level relative to R848 condition, fold increase)” value is given as 1.781.

With “GTCCCCTGTTGACTGG (antisense; LNA-modified, pattern not given here) [HPRT LNA-489 KL]”, the “TLR8 100 nM (averaged NF-κB-Luciferase level relative to R848 condition, fold increase)” value stood at 0.335 and the “TLR8 500 nM (averaged NF-κB-Luciferase level relative to R848 condition, fold increase)” value was 0.304.

Consider “GTCTTGGCTTCGTGGA (antisense; LNA-modified, pattern not given here) [MB21D1-522 LNA V1]”, for which the “TLR8 100 nM (averaged NF-κB-Luciferase level relative to R848 condition, fold increase)” value is 0.678 and the “TLR8 500 nM (averaged NF-κB-Luciferase level relative to R848 condition, fold increase)” value stood at 2.137.

As to “GTGTCTGGAAGCTTCC (antisense; LNA-modified, pattern not given here) [CTNN2B-809 LNA V1]”, the “TLR8 100 nM (averaged NF-κB-Luciferase level relative to R848 condition, fold increase)” value was determined as 0.923 and the “TLR8 500 nM (averaged NF-κB-Luciferase level relative to R848 condition, fold increase)” value is 2.057.

With “GTTCAGTCCTGTCCAT (antisense; LNA-modified, pattern not given here) [HPRT LNA-292 V1]”, the “TLR8 100 nM (averaged NF-κB-Luciferase level relative to R848 condition, fold increase)” value is 1.069 and the “TLR8 500 nM (averaged NF-κB-Luciferase level relative to R848 condition, fold increase)” value was 4.129.
